{
  "source": "patent US20230160018A1",
  "about": "“CRYBETAB2 PREDICTS POOR BREAST CANCER OUTCOME AND SENSITIZES TUMORS TO NUCLEOLIN AND CDK INHIBITION” (The Johns Hopkins University, priority 2020, published 2023)",
  "test_system": "MCF10AT1-vector tumors",
  "assay": "MCF10AT1-vector (CRYβB2-lacking) xenograft tumor growth in NSG mice",
  "assay_type": "in vivo",
  "settings": "palbociclib 50 mg/kg oral, 5 days/week, 2 weeks; tumors lack CRYβB2 expression",
  "data": [
    {"smiles": "CC(=O)c1c(C)c2cnc(Nc3ccc(N4CCNCC4)cn3)nc2n(C2CCCC2)c1=O", "note": "[palbociclib]", "values": [
      {"measurement": "tumor size", "value": "no effect"}
    ]}
  ]
}
